In ChEMBL document CHEMBL3507680, “University of Dundee, Gates Library screen for HepG2 cell viability”:

Assay: Human HepG2 cell viability assay in 384 well format
Assay type: toxicity, cell-based
Design: dose 125 nL, time 70.5 hour; concentration not given beside the values
Details: HepG2 cells, read-out: Inhibition

Structure (SMILES) | cytotoxicity at 70.5 h
CN(CC1(C)COC1)C(=O)c1cc(-c2ccnn2C)nc2ccccc12 | -0.845%
CN(C)C(=O)c1cnc2n1CCN(Cc1ccc3c(c1)OCO3)C2 | -7.97%
CCn1cc(-c2nn3c(C(F)(F)F)nnc3s2)c(C)n1 | -3.8%
CNC(=O)CSc1cnn(CC(=O)Nc2cccc(Cl)c2C)c(=O)c1Cl | -16.3%
COCC1CC2(CCN(C(=O)c3ccc(C)nc3)CC2)CO1 (stereo unspecified) | -5.4%
O=C1NC2(CCN(C(=O)c3ccc(Cl)cn3)CC2)CC1c1ccccc1 (stereo unspecified) | 8.76%
CN(C)c1ncc(-c2cncn2CCc2ccc3c(c2)OCCO3)cn1 | -7.82%
CC(NC(=O)CNc1cc2c(cc1Cl)NC(=O)CO2)c1ccco1 (stereo unspecified) | 14.6%
Cc1cnn(-c2ccc(C(=O)N3CCN(C)CC3C)cc2)c1 (stereo unspecified) | -3.9%
Cn1cnc2c1C(COCC1CC1)CN(C(=O)c1ccsc1)C2 (stereo unspecified) | 6.4%
O=C(c1cc2c(s1)CCC2)N1CCCC(c2cnccn2)C1 (stereo unspecified) | -17%
CCOCC1CCN(C(=O)Nc2ccc3c(c2)CCCO3)C1 (stereo unspecified) | 17.3%
CCCc1nc(C)c(C(=O)NC2CCN(C3CC3)C2)s1 (stereo unspecified) | 14.1%
Cc1ncsc1CCC(=O)NC1CCN(Cc2cccs2)CC1 | -11.5%
CCCc1nnc2sc(C3CCS(=O)(=O)CC3)nn12 | -10.2%
O=S(=O)(NCC1(O)CCOCC1)c1c(F)cccc1F | -2.88%
COCCN(Cc1cnn(C)c1)C(=O)C1COc2c(cccc2OC)C1 (stereo unspecified) | 0.35%
Cc1ccc(CN2CC[C@@]3(O)CCN(S(=O)(=O)N(C)C)C[C@H]3C2)cc1C | -16%
c1cc(N2CCSCC2)ccc1CNc1cncc2nnnn12 | -12.4%
CN(CCNC(=O)c1cnc(-c2ccccc2)nc1)S(C)(=O)=O | 5.47%
Cc1ccoc1C(=O)NC(CC(C)C)C(=O)N1CCC(CO)CC1 (stereo unspecified) | 27.4%
Cc1nc(C(F)(F)F)nc(N2CCC3(CC2)CC(C(=O)O)N(C)C3)c1C (stereo unspecified) | -5.6%
CCOc1ncccc1CNS(=O)(=O)c1ccc2c(c1)CCC2 | 4.98%

Structure (SMILES) | cytotoxicity at 70.5 h
CN(C)CCN1C(=O)CCC12CCN(C(=O)c1cccnc1)CC2 | -4%
CCCn1cnc(S(=O)(=O)Nc2cccnc2-n2cccn2)c1 | 19.8%
COc1ccc(CNc2c(N3CCN(C(C)=O)CC3)c(=O)c2=O)cc1 | -12.5%
CN(C)S(=O)(=O)N1CC[C@]2(C[C@H](Oc3cccnc3)CO2)C1 | -5.74%
CC(=O)N1CC[C@H]2OCC[C@@H](C(=O)Nc3cccnc3C)[C@H]2C1 | -3.55%
O=C1NC2(CCNCC2)CC1c1cccnc1 (stereo unspecified) | -7.17%
CC1CCC(NC(=O)CNC2(c3cccc(Br)c3)CCOCC2)CC1 (stereo unspecified) | 9.26%
CCc1nc(C2CCCN2C(=O)CCn2cncn2)no1 (stereo unspecified) | -21.3%
CNC(=O)c1ccc(C2CN(C(=O)c3scnc3C)CCO2)nc1 (stereo unspecified) | -3.13%
CC(=O)N1CCC(NC(C)c2cnn(-c3ccc(F)cc3F)c2C)CC1 (stereo unspecified) | -5.65%
Cc1noc(C2CCCN(C(=O)c3scnc3Cl)C2)n1 (stereo unspecified) | 13%
COC1CN(C(=O)NCC(N)=O)CCC(=O)N(C)c2ccccc21 (stereo unspecified) | -7.69%
COc1cccc(COCC(=O)N2CCCCCC2)c1 | 17.5%
CN(CC(=O)N1CCCC1Cn1cccn1)c1cnccn1 (stereo unspecified) | -19.4%
Cc1ccc(CN2C[C@@H]3CCCO[C@@H]3[C@H](NC(=O)CC3CC3)C2)s1 | -1.25%
CCN(Cc1noc(C2CCC2)n1)C(=O)c1cnc2ccccc2c1 | 13.1%
CC(C)(C)NC(=O)Cn1cc(C(N)=O)c(-c2ccccc2)n1 | -3.41%
CCn1nc(C)cc1C(=O)NCc1cccnc1N(C)C | 2.09%
O=C(c1cnc(O)cn1)N(Cc1ccsc1)CC1CCCO1 (stereo unspecified) | 25.2%
Cc1nc(CN(C)C2CCN(CCCOc3ccc(F)cc3)C2)no1 (stereo unspecified) | 22.2%
Cc1nn(CC(=O)O)c2nccc(-c3ccc(F)cc3)c12 | -8.88%
COc1ncccc1C(=O)N1CC[C@]2(C[C@@H](Oc3cccnc3)CO2)C1 | 25.3%
Cc1ccc(CN2C[C@@H]3COC[C@@H](NS(C)(=O)=O)[C@@H]3C2)o1 | -18.3%

Structure (SMILES) | cytotoxicity at 70.5 h
Cc1ccccc1NC1CCN(C(=O)CCc2ccco2)CC1 | 1.41%
Cn1nc(Br)c2c(NCCSCCCO)ncnc21 | -10.5%
Cc1csc(CCCNc2ccc(S(N)(=O)=O)cc2C#N)n1 | -22.6%
c1cnc(N2CCO[C@H]3[C@H](OCC4CCOCC4)CC[C@@H]32)nc1 | -10.9%
CNC(=O)[C@H]1C[C@@H]2CN(Cc3ccc(C)cc3)C[C@H]1O2 | -6.44%
Cc1nc2c(s1)C(N(C)C(=O)NCCCC(C)(C)CO)CCC2 (stereo unspecified) | -6.11%
COc1ccnc(N(C)Cc2c(C)noc2C)n1 | -3.59%
O=C(CS(=O)(=O)Cc1cc(Cl)c2c(c1)OCCCO2)NCC1CC1 | -3.53%
Cc1ccnn1CCNC(=O)c1cnc(N(C)C)nc1 | -4.92%
COCCNC(=O)Cn1cc(OCc2ccc(F)cc2)c(=O)cc1CO | -9.69%
O=C(NCCCn1cccn1)C1(c2ccc(Br)cc2)CC1 | -2.34%
c1nc2c(c(N3CCOC(Cn4cncn4)C3)n1)CCC2 (stereo unspecified) | -7.61%
CSCc1ccc(N2CCC(C(O)Cc3ccccc3)CC2)nc1 (stereo unspecified) | 26.6%
COCc1nc(CNC2CCC3(CCNCC3)CC2)no1 | -8.94%
Cc1nccc([C@H]2C[C@@H]3CCN(S(=O)(=O)C4CC4)C[C@H]3O2)n1 | 0.462%
COCCN1C(=O)C[C@H]2[C@H]1CCN2Cc1cccc(C#N)c1 | -19.1%
CN1CCN(C(=O)[C@H]2C[C@H]3[C@H](CCN3Cc3nccs3)O2)CC1 | -10.8%
CCC[C@@H]1CN(c2cncc(C(=O)N3CCOCC3)n2)C[C@H]1N(C)C | 32.6%
CCOC(=O)c1ccc(N2CCN(Cc3c(C)nn(C)c3Cl)CC2)nc1 | 12.7%
CC(C)c1noc(C2CCCN2S(=O)(=O)N2CCCCCC2)n1 (stereo unspecified) | -6.79%
Cc1ccc(F)c(NS(=O)(=O)c2cc3c(c(C(=O)O)c2)OCCO3)c1 | 2.59%
COCC1CN(C(=O)Cc2cccc(F)c2)Cc2ccnn2C1 (stereo unspecified) | -5.69%
CN(Cc1cccs1)C(=O)CN1CCCC(Cn2cncn2)C1 (stereo unspecified) | -5.28%

Structure (SMILES) | cytotoxicity at 70.5 h
Cc1n[nH]c(C2CN(C(=O)c3coc(Br)c3)CCO2)n1 (stereo unspecified) | -10.2%
O=S(=O)(c1cccs1)N1CCN(Cc2nc(-c3ccco3)cs2)CC1 | 1.85%
Cc1nn(CCNc2ncnc3c2NC(=O)CN3)c(C)c1Cl | -8.12%
CNc1nc(CNC(=O)Nc2ccccc2C(F)(F)F)cs1 | -2.38%
COc1cccc(OCC2CCCN(C(=O)c3ncoc3C3CC3)C2)c1 (stereo unspecified) | -11.7%
CN(CCCc1cnn(C)c1)C(=O)Nc1cccc2[nH]ncc12 | -15.7%
Fc1cccnc1N1CCCC(c2nccs2)C1 (stereo unspecified) | -5.3%
CC(C)n1nc(Cn2cccc2)c2c1CN(Cc1ccoc1)C2 | -4.83%
Cc1nc(CN2CCN(C(=O)c3cc(C4CC4)on3)CC2)cs1 | -14.7%
CC(C)c1nc2c(n1C)CCN(CC(=O)Nc1ccnn1C(C)C)C2 | 0.248%
O=C(CNC(=O)c1c(F)cccc1Cl)Nc1ccc(F)cn1 | -12.6%
NC(=O)c1cc(C2CCCN(CCc3ccccn3)C2)n[nH]1 (stereo unspecified) | -10.6%
O=C1NCC2(CCCN(C(=O)c3ccc4c(c3)OCCO4)CC2)O1 (stereo unspecified) | -2.63%
CN1C[C@H]2CNC[C@@]2(C(=O)NC2CCN(c3ncccc3C#N)CC2)C1 | 1.46%
CN(C)CCNc1c(-c2ccccc2)c(=O)c1=O | -1.53%
Cc1cccc(NC2CCN(C(=O)Nc3cccc4[nH]ccc34)CC2)n1 | -8.86%
O=C(c1coc(-c2ccccc2)n1)N1CCS(=O)(=O)CC1 | -3.26%
O=C(c1cccs1)N1C[C@@H]2OCCN(CC3CCCO3)[C@@H]2C1 (stereo partly specified) | 1.09%
CCCn1nc(C)c(-c2cncn2CC2(N(C)C)CCC(C)CC2)c1C (stereo unspecified) | -5.71%
Cc1nc(CNC(=O)CCCc2cccs2)no1 | -5.14%
COc1c(C)cc(C(C(=O)O)N(C)Cc2ccn[nH]2)cc1C (stereo unspecified) | -3.26%
OCCc1ncnn1Cc1cccc(Cl)c1 | 44.4%
C=C(C)C(=O)N1CCC(C(=O)c2cc(C)cnc2N)CC1 | 14.9%

Structure (SMILES) | cytotoxicity at 70.5 h
Cc1nnc(N2C[C@H](OCc3ccncc3)[C@H]3OCCC[C@H]32)s1 | -4.47%
CCN(CC1CCOC1)C(=O)c1ccccc1NS(=O)(=O)CC (stereo unspecified) | -3.45%
O=C(c1ccc(F)cc1F)N(CC(F)(F)F)C1CCOCC1 | -4.08%
O=C(NCc1ccoc1)c1ccc(C2CCCN2CC2CCOCC2)s1 (stereo unspecified) | 38.9%
CNS(=O)(=O)Cc1ccc(CNC(=O)Nc2cn[nH]c2)cc1 | -11.3%
CCCc1nn(Cc2csc(C(C)C)n2)c(=O)o1 | -7.07%
CSCC(=O)N[C@H]1CN(Cc2c(C)noc2C)C[C@@H]1C(C)C | -0.898%
O=C(c1cccc(CNS(=O)(=O)c2ccc(F)cc2)c1)N1CCCC1 | -9.64%
COc1cc(N2CCC3(CC2)CCN(c2cccnc2)C3=O)ncn1 | -9.9%
Cc1nccc([C@H]2C[C@@H]3CCN(Cc4ccco4)C[C@H]3O2)n1 | -10.9%
COc1cc(CN(C)C(=O)NCC(=O)NC(C)C)ccc1SC | -1.54%
O=C(NCCNc1ccc(C(F)(F)F)cn1)c1cc(Cl)ccc1F | -4.63%
O=C(CC1CCCC1)N1CCOC(c2nc(-c3ncccn3)no2)C1 (stereo unspecified) | -1.63%
CC(=O)N1CCN(C(=O)CCc2cc(Br)cs2)CC1 | -3.42%
CCC(CC)C(=O)NS(=O)(=O)c1ccc(C#N)cc1C(F)(F)F | -0.398%
N#Cc1cc(NC(=O)C2CC=CC2)ccc1N1CCC(O)CC1 | -0.67%
Cc1ccc(-c2nc(CCNC(=O)NC3CCC(O)CC3)co2)cc1 (stereo unspecified) | 0.284%
O=C(CCc1nccs1)N1CCCC(n2cccn2)C1 (stereo unspecified) | 1.23%
Cc1nc(-c2ccccc2)n(CC(=O)NC2CCCC2)n1 | -13.6%
